Common to all, as to assay: competitive ABPP of Abhd10 versus anti-targets – biochemical, fluorescence, gel-based, mouse proteome, selectivity assay for PME-1 inhibitor project, late-stage follow-up (AID 588807)
One experiment concerns Magl. The conditions noted are these: anti-target, at 10 µM, stronger effect = higher value.
In experiment [1] the target is Monoacylglycerol lipase ABHD6 (Mus musculus) (UniProt Q8R2Y0). The conditions noted are these: anti-target, stronger effect = higher value.
The target of experiment [2] is Palmitoyl-protein thioesterase ABHD10, mitochondrial (Mus musculus) (UniProt Q6PE15). Particulars: stronger effect = higher value.
In a further experiment the test system is APEH. Particulars: anti-target, stronger effect = higher value.
The test system of another experiment is Kiaa1363. The conditions noted are these: anti-target, stronger effect = higher value.
The target of experiment [3] is Prolyl endopeptidase (Mus musculus) (UniProt Q9QUR6). Particulars: PREP, anti-target, stronger effect = higher value.

This is an account of results in PubChem BioAssay AID588807 (The Scripps Research Institute Molecular Screening Center, 2011).

Calls of active or inactive are those of the source. How the calls were made is not given here.

Chain of Prolyl endopeptidase (Mus musculus) (Q9QUR6 whole entry, looked up): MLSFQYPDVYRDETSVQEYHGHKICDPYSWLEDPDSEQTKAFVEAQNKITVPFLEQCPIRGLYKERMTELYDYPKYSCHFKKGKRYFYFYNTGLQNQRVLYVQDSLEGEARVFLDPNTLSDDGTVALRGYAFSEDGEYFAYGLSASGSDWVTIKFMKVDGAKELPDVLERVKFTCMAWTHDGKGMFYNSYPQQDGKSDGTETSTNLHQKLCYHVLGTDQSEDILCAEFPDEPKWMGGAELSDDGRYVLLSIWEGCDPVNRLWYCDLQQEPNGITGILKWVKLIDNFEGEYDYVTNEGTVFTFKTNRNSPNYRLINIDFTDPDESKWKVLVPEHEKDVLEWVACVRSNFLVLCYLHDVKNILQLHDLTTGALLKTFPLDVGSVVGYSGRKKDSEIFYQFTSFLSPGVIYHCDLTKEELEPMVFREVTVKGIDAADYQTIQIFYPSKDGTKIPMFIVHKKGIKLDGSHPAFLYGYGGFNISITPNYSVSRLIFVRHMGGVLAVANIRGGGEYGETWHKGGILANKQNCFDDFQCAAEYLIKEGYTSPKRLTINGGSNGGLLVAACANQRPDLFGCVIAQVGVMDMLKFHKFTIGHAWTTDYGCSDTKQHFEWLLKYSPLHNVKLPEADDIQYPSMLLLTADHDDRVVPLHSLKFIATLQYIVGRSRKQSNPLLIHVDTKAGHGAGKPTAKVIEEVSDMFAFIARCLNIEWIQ
Chain of Monoacylglycerol lipase ABHD6 (Mus musculus) (Q8R2Y0 whole entry, looked up): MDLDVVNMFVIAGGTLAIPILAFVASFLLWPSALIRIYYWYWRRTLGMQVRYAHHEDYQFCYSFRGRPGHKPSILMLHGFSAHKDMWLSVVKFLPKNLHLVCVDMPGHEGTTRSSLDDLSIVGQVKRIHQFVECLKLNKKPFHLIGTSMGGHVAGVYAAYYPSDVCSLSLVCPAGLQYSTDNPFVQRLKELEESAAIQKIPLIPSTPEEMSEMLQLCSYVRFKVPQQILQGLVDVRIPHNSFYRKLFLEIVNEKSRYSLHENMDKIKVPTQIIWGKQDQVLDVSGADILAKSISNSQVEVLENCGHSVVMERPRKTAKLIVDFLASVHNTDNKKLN
Chain of Palmitoyl-protein thioesterase ABHD10, mitochondrial (Mus musculus) (Q6PE15 whole entry, looked up): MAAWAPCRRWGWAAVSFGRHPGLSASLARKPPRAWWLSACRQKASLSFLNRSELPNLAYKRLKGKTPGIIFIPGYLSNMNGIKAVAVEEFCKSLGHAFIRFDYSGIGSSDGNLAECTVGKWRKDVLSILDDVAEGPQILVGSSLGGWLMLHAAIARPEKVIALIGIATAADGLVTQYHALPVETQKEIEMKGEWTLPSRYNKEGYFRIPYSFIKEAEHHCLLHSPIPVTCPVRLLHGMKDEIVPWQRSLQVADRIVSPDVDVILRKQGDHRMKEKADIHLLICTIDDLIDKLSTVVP

For orientation: inhibition means the relative decrease from the control value, in per cent. On to `Cc1cccc([C@]2(C)C(=O)N(C(=O)OC(C)C)N2C(=O)OC(C)C)c1`, for which the inhibition with Magl was 10% (inactive); in experiment [1] (at 10 µM) it was 0% (inactive); in experiment [2] (at 10 µM) it was 100%; in experiment [2] (inhibition, at 0.1 µM), 55%; in experiment [2] (inhibition, at 1 µM), 95%; in the experiment on APEH (at 10 µM) it was 25% (inactive). The figures for the inhibition (in the experiment on Kiaa1363 (at 10 µM); in experiment [3] (at 10 µM)) were 0% (inactive) and 40% (inactive), respectively.
In the case of `CCOC(=O)N1C(=O)[C@@](CC)(c2ccccc2)N1C(=O)OCC`, the inhibition in the experiment with Magl is 0% (inactive); in experiment [1] (at 10 µM) it was 65% (inactive); in experiment [1] (inhibition, at 1 µM) it was 15%; in experiment [2] (at 10 µM), 100%; in experiment [2] (inhibition, at 0.1 µM) it was 75%; in experiment [2] (inhibition, at 1 µM), 100%. Further, the inhibition in the experiment with APEH (at 10 µM) was 55% (inactive); in the experiment on Kiaa1363 (at 10 µM), 0% (inactive); in experiment [3] (at 10 µM), 90% (inactive); in experiment [3] (inhibition, at 1 µM), 20%.
Consider `CCOC(=O)N1C(=O)[C@@](CC)(c2ccc(C)cc2)N1C(=O)OCC`, for which the inhibition in the experiment on Magl was 60% (inactive); in experiment [1] (at 10 µM) it was 55% (inactive); in experiment [2] (at 10 µM), 100%; in experiment [2] (inhibition, at 0.1 µM), 60%; in experiment [2] (inhibition, at 1 µM) it was 95%; with APEH (at 10 µM), 0% (inactive). Moreover, the inhibition was 25% (inactive) in the experiment with Kiaa1363 (at 10 µM) and 65% (inactive) in experiment [3] (at 10 µM).
`C=CCOC(=O)N1N(C(=O)OC)C(=O)[C@@]1(CC)c1ccccc1`: the inhibition in the experiment with Magl is 20% (inactive); in experiment [1] (at 10 µM), 60% (inactive); in experiment [2] (at 10 µM), 90% (inactive); in experiment [2] (inhibition, at 0.1 µM), 10%; in experiment [2] (inhibition, at 1 µM) it was 60%; with APEH (at 10 µM), 0% (inactive). In addition, the inhibition with Kiaa1363 (at 10 µM) is 55% (inactive); in experiment [3] (at 10 µM), 55% (inactive); in experiment [3] (inhibition, at 0.1 µM), 10%; in experiment [3] (inhibition, at 1 µM), 25%.
Turning to `CC[C@@]1(c2ccc(C)cc2)C(=O)N(C(=O)OC)N1C(=O)OC`, the inhibition in the experiment on Magl is 10% (inactive); in experiment [1] (at 10 µM), 25% (inactive); in experiment [2] (at 10 µM), 100%; in experiment [2] (inhibition, at 0.1 µM) it was 55%; in experiment [2] (inhibition, at 1 µM), 95%; in the experiment with APEH (at 10 µM), 20% (inactive). Further, the inhibition in the experiment with Kiaa1363 (at 10 µM) was 15% (inactive); in experiment [3] (at 10 µM) it was 50% (inactive); in experiment [3] (inhibition, at 1 µM), 20%.
As to `C=CCOC(=O)N1C(=O)[C@@](CC)(c2cccc(C)c2)N1C(=O)OC`, the inhibition in the experiment with Magl is 20% (inactive); in experiment [1] (at 10 µM) it was 45% (inactive); in experiment [2] (at 10 µM), 100% (inactive); in experiment [2] (inhibition, at 0.1 µM) it was 10%; in experiment [2] (inhibition, at 1 µM), 95%; in the experiment on APEH (at 10 µM), 55% (inactive). The inhibition is 35% (inactive) with Kiaa1363 (at 10 µM); 65% (inactive) in experiment [3] (at 10 µM); 20% in experiment [3] (inhibition, at 1 µM).
Take `Cc1cccc([C@]2(C)C(=O)N(C(=O)OCc3ccccc3)N2C(=O)OCc2ccccc2)c1`: the inhibition with Magl is 0% (inactive); in experiment [1] (at 10 µM), 0% (inactive); in experiment [2] (at 10 µM), 15% (inactive); in the experiment with APEH (at 10 µM) it was 0% (inactive); with Kiaa1363 (at 10 µM), 0% (inactive); in experiment [3] (at 10 µM), 0% (inactive).
As to `CC[C@@]1(c2ccc(Cl)cc2)C(=O)N(C(=O)OC)N1C(=O)OC`, the inhibition in the experiment on Magl was 45% (inactive); in experiment [1] (at 10 µM) it was 50% (inactive); in experiment [2] (at 10 µM) it was 100%; in experiment [2] (inhibition, at 0.1 µM) it was 60%; in experiment [2] (inhibition, at 1 µM), 100%; in the experiment on APEH (at 10 µM) it was 45% (inactive). The inhibition is 25% (inactive) in the experiment with Kiaa1363 (at 10 µM) and 50% (inactive) in experiment [3] (at 10 µM).
Turning to `CC[C@@]1(c2cccc(C)c2)C(=O)N(C(=O)OC)N1C(=O)OC`, the inhibition in the experiment on Magl was 45% (inactive); in experiment [1] (at 10 µM), 50% (inactive); in experiment [2] (at 10 µM), 100% (inactive); in experiment [2] (inhibition, at 0.1 µM), 35%; in experiment [2] (inhibition, at 1 µM) it was 100%; in the experiment on APEH (at 10 µM), 50% (inactive). The inhibition was 35% (inactive) in the experiment with Kiaa1363 (at 10 µM); 85% (inactive) in experiment [3] (at 10 µM); 20% in experiment [3] (inhibition, at 1 µM).
Regarding `CC[C@@]1(c2cccc(Cl)c2)C(=O)N(C(=O)OC)N1C(=O)OC`, the inhibition is 10% (inactive) in the experiment with Magl; 65% (inactive) in experiment [1] (at 10 µM); 95% (inactive) in experiment [2] (at 10 µM); 45% in experiment [2] (inhibition, at 0.1 µM); 90% in experiment [2] (inhibition, at 1 µM); 90% (inactive) in the experiment with APEH (at 10 µM). The inhibition is 20% (inactive) in the experiment on Kiaa1363 (at 10 µM) and 90% (inactive) in experiment [3] (at 10 µM).
For `C=CCOC(=O)N1C(=O)[C@@](CC)(c2ccc(C)cc2)N1C(=O)OCC=C`, the inhibition with Magl is 50% (inactive); in experiment [1] (at 10 µM), 75% (inactive); in experiment [2] (at 10 µM) it was 90%; in experiment [2] (inhibition, at 0.1 µM), 80%; in experiment [2] (inhibition, at 1 µM) it was 90%; in the experiment on APEH (at 10 µM), 0% (inactive). Moreover, the inhibition in the experiment with Kiaa1363 (at 10 µM) is 10% (inactive); in experiment [3] (at 10 µM) it was 40% (inactive); in experiment [3] (inhibition, at 1 µM), 15%.
Turning to `C=CCOC(=O)N1N(C(=O)OC)C(=O)[C@@]1(CC)c1cccc(C)c1`, the inhibition in the experiment on Magl is 10% (inactive); in experiment [1] (at 10 µM), 50% (inactive); in experiment [2] (at 10 µM), 90% (inactive); in experiment [2] (inhibition, at 0.1 µM) it was 10%; in experiment [2] (inhibition, at 1 µM), 75%; in the experiment with APEH (at 10 µM) it was 75% (inactive). Besides, the inhibition with Kiaa1363 (at 10 µM) was 25% (inactive); in experiment [3] (at 10 µM), 70% (inactive).
On to `CC[C@]1(c2cccc(C)c2)C(=O)N(C(=O)OC(C)C)N1C(=O)OC(C)C`, for which the inhibition in the experiment with Magl is 0% (inactive); in experiment [1] (at 10 µM), 10% (inactive); in experiment [2] (at 10 µM), 85% (inactive); in experiment [2] (inhibition, at 0.1 µM), 30%; in experiment [2] (inhibition, at 1 µM), 30%; with APEH (at 10 µM), 0% (inactive). In addition, the inhibition (in the experiment on Kiaa1363 (at 10 µM); in experiment [3] (at 10 µM)) was 0% (inactive) in each case.
As for `CC[C@@]1(c2cccc(C)c2)C(=O)N(C(=O)OCc2ccccc2)N1C(=O)OCc1ccccc1`, the inhibition in the experiment with Magl is 0% (inactive); in experiment [1] (at 10 µM) it was 35% (inactive); in experiment [1] (inhibition, at 1 µM), 10%; in experiment [2] (at 10 µM) it was 95% (inactive); in experiment [2] (inhibition, at 0.1 µM) it was 20%; in experiment [2] (inhibition, at 1 µM), 65%. The inhibition with APEH (at 10 µM) was 0% (inactive); in the experiment with Kiaa1363 (at 10 µM), 75% (inactive); in experiment [3] (at 10 µM), 90% (inactive).
Take `CC[C@@]1(c2cccc(F)c2)C(=O)N(C(=O)OC)N1C(=O)OC`: the inhibition with Magl is 25% (inactive); in experiment [1] (at 10 µM), 25% (inactive); in experiment [2] (at 10 µM), 95%; in experiment [2] (inhibition, at 0.1 µM), 60%; in experiment [2] (inhibition, at 1 µM) it was 95%; in the experiment with APEH (at 10 µM), 0% (inactive). For the same compound, the inhibition was 0% (inactive) in the experiment with Kiaa1363 (at 10 µM); 70% (inactive) in experiment [3] (at 10 µM); 15% in experiment [3] (inhibition, at 1 µM).
On to `CC[C@@]1(c2ccccc2)C(=O)N(C(=O)OC)N1C(=O)OC`, for which the inhibition in the experiment with Magl is 0% (inactive); in experiment [1] (at 10 µM) it was 0% (inactive); in experiment [2] (at 10 µM), 10% (inactive); in the experiment on APEH (at 10 µM), 0% (inactive); with Kiaa1363 (at 10 µM) it was 0% (inactive); in experiment [3] (at 10 µM), 0% (inactive).
Regarding `C=CCOC(=O)N1C(=O)[C@@](CC)(c2ccccc2)N1C(=O)OCC=C`, the inhibition in the experiment on Magl is 50% (inactive); in experiment [1] (at 10 µM), 80% (inactive); in experiment [2] (at 10 µM) it was 100% (inactive); in experiment [2] (inhibition, at 0.1 µM), 30%; in experiment [2] (inhibition, at 1 µM), 90%; in the experiment with APEH (at 10 µM), 55% (inactive). Moreover, the inhibition is 35% (inactive) in the experiment with Kiaa1363 (at 10 µM); 70% (inactive) in experiment [3] (at 10 µM); 10% in experiment [3] (inhibition, at 1 µM).
`CC[C@@]1(c2cccc(Cl)c2)C(=O)N(C(=O)OC(C)C)N1C(=O)OC(C)C`: the inhibition was 45% (inactive) in the experiment on Magl; 70% (inactive) in experiment [1] (at 10 µM); 15% in experiment [1] (inhibition, at 0.1 µM); 20% in experiment [1] (inhibition, at 1 µM); 100% (inactive) in experiment [2] (at 10 µM); 40% in experiment [2] (inhibition, at 0.1 µM). Moreover, the inhibition was 100% in experiment [2] (inhibition, at 1 µM); 65% (inactive) in the experiment on APEH (at 10 µM); 30% in the experiment with APEH (inhibition, at 1 µM); 75% (inactive) in the experiment on Kiaa1363 (at 10 µM); 25% in the experiment with Kiaa1363 (inhibition, at 1 µM); 95% (inactive) in experiment [3] (at 10 µM). The compound also came in with an inhibition in experiment [3] (inhibition, at 1 µM) of 50%.
Consider `CC[C@@]1(c2ccc(OC)cc2)C(=O)N(C(=O)OC)N1C(=O)OC`, for which the inhibition in the experiment with Magl is 10% (inactive); in experiment [1] (at 10 µM) it was 10% (inactive); in experiment [2] (at 10 µM) it was 100% (inactive); in experiment [2] (inhibition, at 1 µM) it was 70%; in the experiment on APEH (at 10 µM), 95% (inactive); in the experiment on APEH (inhibition, at 1 µM), 95%. Further, the inhibition is 0% (inactive) with Kiaa1363 (at 10 µM) and 40% (inactive) in experiment [3] (at 10 µM).
In the case of `CC[C@]1(c2cccc(C)c2)C(=O)N(C(=O)OC)N1C(=O)OC`, the inhibition in the experiment on Magl was 0% (inactive); in experiment [1] (at 10 µM), 0% (inactive); in experiment [2] (at 10 µM), 85% (inactive); in experiment [2] (inhibition, at 1 µM), 20%; in the experiment with APEH (at 10 µM) it was 0% (inactive); with Kiaa1363 (at 10 µM), 0% (inactive). The inhibition in experiment [3] (at 10 µM) is 0% (inactive).
